In patent publication US20260137706A1, “METHODS OF TREATING INFLAMMATORY DISEASES” (INTERLINE THERAPEUTICS, INC., priority 2023, published 2026):

Experiments:
[1] = molecular target: T1, GST-RIPK2 fusion protein (human RIPK2, amino acids 1-310) (Homo sapiens, UniProt O43353); assay: RIPK2 binding competition assay (TR-FRET, Tracer 199 displacement); details: 10 nM Tracer 199, 1 nM GST-RIPK2, read-out: RIPK2 IC50
T1 construct: made in house; host or cells: baculovirus infected Sf9 cells
In short: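 GST-RIPK2 (human aa 1-310, Sf9-expressed; final 1 nM) with Tracer 199 (final 10 nM) and Tb-anti-GST (final 0.5 nM) in Tris pH 7.5 buffer, 45 min at 22 °C. TR-FRET 665/620 nm ratio after 337 nm excitation; normalized to no-inhibitor (0%) and no-protein (−100%), giving IC50.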

[2] = molecular target: T2, binding of His-XIAP(BIR2)-avi fusion protein to GST-RIPK2 fusion protein (RIPK2/XIAP) (Homo sapiens, UniProt O43353); assay: RIPK2-XIAP binding competition PPI assay (TR-FRET); details: RIPK2/XIAP binding competition PPI assay; for Emax: Amax, read-out: PPI Amax bin; for IC50: read-out: PPI IC50 bin
T2 construct: made in house; host or cells: baculovirus infected Sf9 cells
In short: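 Compounds (in DMSO, 100-fold stock) incubated 120 min at 23 °C with 1 nM GST-RIPK2 (aa 1-310) and 25 nM His-XIAP(BIR2 aa 152-231)-avi, plus anti-His-XL665 and anti-GST-Tb, in pH 7.5 Tris buffer. Read-out: 665/520 nm emission ratio. Normalized to no-inhibitor (0%) and 50 nM GSK583 (−100%); Amax binned A–D.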

[3] = test system: NF-κB pathway (SEAP) in THP1-Dual cells; assay: THP-1 Dual cell SEAP assay (L18-MDP stimulated); type: cell-based; details: Homo sapiens, THP1-Dual, read-out: NF-κB THP1 IC50 bin
In short: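 THP1-Dual cells (~25,000/well) were preincubated 30 min with serially diluted compounds, then stimulated with 10 ng/mL L18-MDP (final) for 20-24 h at 37 °C. Supernatant SEAP was read with QUANTI-Blue at OD 620-655 nm after 2 h. IC50 came from non-linear fits of % inhibition versus DMSO/L18-MDP controls after media-blank subtraction.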

T2 sequence (O43353 1-310 limits assumed): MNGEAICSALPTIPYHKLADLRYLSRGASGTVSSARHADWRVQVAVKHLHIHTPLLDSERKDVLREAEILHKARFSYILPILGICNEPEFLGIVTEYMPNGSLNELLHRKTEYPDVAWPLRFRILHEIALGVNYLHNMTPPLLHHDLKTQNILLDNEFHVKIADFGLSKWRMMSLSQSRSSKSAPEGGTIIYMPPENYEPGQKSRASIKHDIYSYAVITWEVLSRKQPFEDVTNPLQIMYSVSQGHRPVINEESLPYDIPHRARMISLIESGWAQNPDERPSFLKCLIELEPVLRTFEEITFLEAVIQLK
T1 sequence (O43353 1-310): as the sequence (O43353 1-310 limits assumed) above

Row | SMILES | IC50 [1] [nM] | Emax [2] [%] | IC50 [2] [nM] | IC50 [3] [nM]
1 | COc1cc2ncc(-c3cc(F)c4nc(C)cn4c3)n2cc1S(=O)(=O)C(C)(C)C [Example 109, 6-(tert-butylsulfonyl)-8′-fluoro-7-methoxy-2′-methyl-3,6′-biimidazo[1,2-a]pyridine] | > 20 | < 30 | > 20 | > 1000
2 | COc1cc2ncc(-c3ccc4ncoc4c3)n2cc1S(=O)(=O)C(C)(C)C [Example 110, 6-(6-(tert-butylsulfonyl)-7-methoxyimidazo[1,2-a]pyridin-3-yl)benzo[d]oxazole] | > 20 | < 30 | > 20 | > 1000
3 | COc1cc2ncc(-c3ccc4nn(C)cc4c3)n2cc1S(=O)(=O)C(C)(C)C [Example 111, 5-(6-(tert-butylsulfonyl)-7-methoxyimidazo[1,2-a]pyridin-3-yl)-2-methyl-2H-indazole] | > 20 | < 30 | > 20 | > 1000
4 | COc1cc2ncc(-c3cnn4ccccc34)n2cc1S(=O)(=O)C(C)(C)C [Example 112, 6-(tert-butylsulfonyl)-7-methoxy-3-(pyrazolo[1,5-a]pyridin-3-yl)imidazo[1,2-a]pyridine] | > 20 | < 30 | > 20 | > 1000
5 | COc1cc2ncc(-c3ccc4cncn4c3)n2cc1S(=O)(=O)C(C)(C)C [Example 113, 6-(tert-butylsulfonyl)-3-(imidazo[1,5-a]pyridin-6-yl)-7-methoxyimidazo[1,2-a]pyridine] | > 20 | < 30 | > 20 | > 1000
6 | COc1cc2ncc(-c3cnn4ncccc34)n2cc1S(=O)(=O)C(C)(C)C [Example 114, 3-(6-(tert-butylsulfonyl)-7-methoxyimidazo[1,2-a]pyridin-3-yl)pyrazolo[1,5-b]pyridazine] | > 20 | < 30 | > 20 | > 1000
7 | COc1cc2ncc(-c3ccc4c(c3)nc(N)n4C)n2cc1S(=O)(=O)C(C)(C)C [Example 115, 5-(6-(tert-butylsulfonyl)-7-methoxyimidazo[1,2-a]pyridin-3-yl)-1-methyl-1H-benzo[d]imidazol-2-amine] | > 20 | 55 to 80 | > 20 | > 1000
8 | COc1cn2ncc(-c3cc(F)c(N)nc3F)c2nc1N1C(=O)OCC1(C)C [Example 116, 3-(3-(6-amino-2,5-difluoropyridin-3-yl)-6-methoxypyrazolo[1,5-a]pyrimidin-5-yl)-4,4-dimethyloxazolidin-2-one] | > 20 | 55 to 80 | > 20 | > 1000
9 | COc1cc2ncc(-c3cc(F)c(OC)c4[nH]cnc34)n2cc1S(=O)(=O)C(C)(C)C [Example 117, 4-(6-(tert-butylsulfonyl)-7-methoxyimidazo[1,2-a]pyridin-3-yl)-6-fluoro-7-methoxy-1H-benzo[d]imidazole] | 2.5 to 20 | 30 to 55 | 2.5 to 20 | 250 to 1000
10 | COc1cc2ncc(-c3cc(F)c(OC)c4[nH]c(C)nc34)n2cc1S(=O)(=O)C(C)(C)C [Example 118, 4-(6-(tert-butylsulfonyl)-7-methoxyimidazo[1,2-a]pyridin-3-yl)-6-fluoro-7-methoxy-2-methyl-1H-benzo[d]imidazole] | 1 to 2.5 | 55 to 80 | < 1 | 50 to 250
11 | COc1cc2ncc(-c3cc(F)c(OC)c4[nH]c(CO)nc34)n2cc1S(=O)(=O)C(C)(C)C [Example 119, (4-(6-(tert-butylsulfonyl)-7-methoxyimidazo[1,2-a]pyridin-3-yl)-6-fluoro-7-methoxy-1H-benzo[d]imidazol-2-yl)methanol] | < 1 | 55 to 80 | < 1 | < 50
12 | COc1cc2ncc(-c3cc(F)c(OC)c4[nH]ncc34)n2cc1S(=O)(=O)C(C)(C)C [Example 120, 4-(6-(tert-butylsulfonyl)-7-methoxyimidazo[1,2-a]pyridin-3-yl)-6-fluoro-7-methoxy-1H-indazole] | 2.5 to 20 | 55 to 80 | 2.5 to 20 | > 1000
13 | COc1cc2ncc(-c3cc(F)c(OC)c4c3cnn4CCO)n2cc1S(=O)(=O)C(C)(C)C [Example 121, 2-(4-(6-(tert-butylsulfonyl)-7-methoxyimidazo[1,2-a]pyridin-3-yl)-6-fluoro-7-methoxy-1H-indazol-1-yl)ethan-1-ol] | > 20 | 55 to 80 | > 20 | > 1000
14 | COc1cc2ncc(-c3cc(F)c(OC)c4nn(CCO)cc34)n2cc1S(=O)(=O)C(C)(C)C [Example 122, 2-(4-(6-(tert-butylsulfonyl)-7-methoxyimidazo[1,2-a]pyridin-3-yl)-6-fluoro-7-methoxy-2HI-indazol-2-yl)ethan-1-ol] | > 20 | < 30 | > 20 | > 1000
15 | COc1cc2ncc(-c3cnc4c(c3)OCCN4C)n2cc1S(=O)(=O)C(C)(C)C [Example 123, 7-(6-(tert-butylsulfonyl)-7-methoxyimidazo[1,2-a]pyridin-3-yl)-4-methyl-3,4-dihydro-2H-pyrido[3,2-b][1,4]oxazine] | > 20 | 30 to 55 | > 20 | > 1000
16 | COc1cc2ncc(-c3cc(F)c(N)nc3F)n2cc1S(=O)(=O)C1(C)CCN(C2COC2)CC1 [Example 124, 3,6-difluoro-5-(7-methoxy-6-((4-methyl-1-(oxetan-3-yl)piperidin-4-yl)sulfonyl)imidazo[1,2-a]pyridin-3-yl)pyridin-2-amine] | 2.5 to 20 | > 80 | > 20 | > 1000
17 | COCCN1CCC(C)(S(=O)(=O)c2cn3c(-c4cc(F)c(N)nc4F)cnc3cc2OC)CC1 [Example 125, 3,6-difluoro-5-(7-methoxy-6-((1-(2-methoxyethyl)-4-methylpiperidin-4-yl)sulfonyl)imidazo[1,2-a]pyridin-3-yl)pyridin-2-amine] | 2.5 to 20 | > 80 | 2.5 to 20 | 250 to 1000
18 | CCCS(=O)(=O)Nc1cc(-c2cnc3cc(OC)c(S(=O)(=O)C(C)(C)CO)cn23)cc(F)c1OC [Example 126, N-(3-fluoro-5-(6-((1-hydroxy-2-methylpropan-2-yl)sulfonyl)-7-methoxyimidazo[1,2-a]pyridin-3-yl)-2-methoxyphenyl)propane-1-sulfonamide] | < 1 | > 80 | < 1 | < 50
19 | CCCS(=O)(=O)Nc1cc(-c2cnc3cc(OC)c(C4(O)CCOCC4)cn23)cc(F)c1OC [Example 127, N-(3-fluoro-5-(6-(4-hydroxytetrahydro-2H-pyran-4-yl)-7-methoxyimidazo[1,2-a]pyridin-3-yl)-2-methoxyphenyl)propane-1-sulfonamide] | 1 to 2.5 | > 80 | 1 to 2.5 | 50 to 250
20 | CCS(=O)(=O)Nc1cc(-c2cnc3cc(OC)c(S(=O)(=O)C(C)(C)CO)cn23)cc(Cl)c1OC [Example 128, N-(3-chloro-5-(6-((1-hydroxy-2-methylpropan-2-yl)sulfonyl)-7-methoxyimidazo[1,2-a]pyridin-3-yl)-2-methoxyphenyl)ethanesulfonamide] | 1 to 2.5 | 55 to 80 | 1 to 2.5 | 50 to 250
21 | CCCS(=O)(=O)Nc1cc(-c2cnc3cc(OC)c(S(=O)(=O)C(C)(C)CO)cn23)cc(Cl)c1OC [Example 129, N-(3-chloro-5-(6-((1-hydroxy-2-methylpropan-2-yl)sulfonyl)-7-methoxyimidazo[1,2-a]pyridin-3-yl)-2-methoxyphenyl)propane-1-sulfonamide] | < 1 | > 80 | < 1 | 50 to 250
22 | CCS(=O)(=O)Nc1cc(-c2cnn3cc(OCCO)c(S(=O)(=O)C(C)(C)C)cc23)cc(F)c1OC [Example 130, N-(5-(5-(tert-butylsulfonyl)-6-(2-hydroxyethoxy)pyrazolo[1,5-a]pyridin-3-yl)-3-fluoro-2-methoxyphenyl)ethanesulfonamide] | < 1 | 55 to 80 | < 1 | < 50
23 | CCS(=O)(=O)Nc1cc(-c2cnn3cc(OC)c(N4C(=O)OCC4(C)C)nc23)cc(F)c1OC [Example 131, N-(5-(5-(4,4-dimethyl-2-oxooxazolidin-3-yl)-6-methoxypyrazolo[1,5-a]pyrimidin-3-yl)-3-fluoro-2-methoxyphenyl)ethanesulfonamide] | 2.5 to 20 | > 80 | 2.5 to 20 | 250 to 1000
24 | CCCS(=O)(=O)Nc1cc(-c2cnn3cc(OC)c(S(=O)(=O)C(C)(C)CO)cc23)cc(F)c1OC [Example 132] | < 1 | > 80 | < 1 | < 50
